Experimental data published in ChEMBL document CHEMBL4184110 (Bioorg Med Chem Lett, 2018).

Biological target: T1, Luciferin 4-monooxygenase (Photuris pensylvanica, UniProt Q27757)
T1 sequence (Q27757 whole entry): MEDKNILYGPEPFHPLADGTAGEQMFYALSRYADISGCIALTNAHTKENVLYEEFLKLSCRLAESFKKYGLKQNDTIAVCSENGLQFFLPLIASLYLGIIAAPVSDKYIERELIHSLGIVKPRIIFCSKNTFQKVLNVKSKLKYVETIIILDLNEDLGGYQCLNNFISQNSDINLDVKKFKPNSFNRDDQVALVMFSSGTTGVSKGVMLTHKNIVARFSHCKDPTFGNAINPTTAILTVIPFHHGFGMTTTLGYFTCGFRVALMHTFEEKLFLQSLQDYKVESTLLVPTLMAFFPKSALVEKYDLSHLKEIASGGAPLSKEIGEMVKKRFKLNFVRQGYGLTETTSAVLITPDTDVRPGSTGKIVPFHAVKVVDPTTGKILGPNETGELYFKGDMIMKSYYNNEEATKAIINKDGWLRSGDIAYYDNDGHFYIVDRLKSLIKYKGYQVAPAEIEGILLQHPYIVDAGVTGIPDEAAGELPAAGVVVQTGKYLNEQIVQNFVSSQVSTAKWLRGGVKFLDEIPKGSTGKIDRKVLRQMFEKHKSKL
Test: Inhibition of Photuris pennsylvanica luciferase after 45 mins by CellTiter-Glo based luminescence assay
Conditions: 0.75 h; call rule not given here

inhibition (INH) | SMILES
Not Active | COC(=O)Cc1ccc(OCc2oc(-c3cccc(OC)c3)nc2C)cc1
Not Active | COC(=O)c1ccc(OCc2oc(-c3cccc(OC)c3)nc2C)cc1
